Activity calls are given as the source filed them.
Columns and labels:
Assay type in all cases: functional, organism-based
Sorghum bicolor [1] = assay: Herbicidal activity against Sorghum bicolor assessed as plant death at 15.63 ppm after 2 weeks
Ipomoea hederacea [2] = assay: Herbicidal activity against Ipomoea hederacea assessed as plant death at 15.63 ppm after 2 weeks
Sorghum bicolor [3] = assay: Herbicidal activity against Sorghum bicolor assessed as plant death at 31.25 ppm after 2 weeks
Setaria faberi [4] = assay: Herbicidal activity against Setaria faberi assessed as plant death at 7.81 ppm after 2 weeks
Sorghum bicolor [5] = assay: Herbicidal activity against Sorghum bicolor assessed as plant death at 7.81 ppm after 2 weeks
Setaria faberi [6] = assay: Herbicidal activity against Setaria faberi assessed as plant death at 15.63 ppm after 2 weeks
Fallopia convolvulus [7] = assay: Herbicidal activity against Fallopia convolvulus assessed as plant death at 31.25 ppm after 2 weeks
Ipomoea hederacea [8] = assay: Herbicidal activity against Ipomoea hederacea assessed as plant death at 7.81 ppm after 2 weeks
Echinochloa crus-galli = assay: Herbicidal activity against Echinochloa crus-galli assessed as plant death at 7.81 ppm after 2 weeks
Amaranthus [9] = assay: Herbicidal activity against Amaranthus sp. assessed as plant death at 7.81 ppm after 2 weeks
Xanthium strumarium [10] = assay: Herbicidal activity against Xanthium strumarium assessed as plant death at 31.25 ppm after 2 weeks
Fallopia convolvulus [11] = assay: Herbicidal activity against Fallopia convolvulus assessed as plant death at 15.63 ppm after 2 weeks
Zea mays [12] = assay: Herbicidal activity against Zea mays assessed as plant death at 7.81 ppm after 2 weeks
Zea mays [13] = assay: Herbicidal activity against Zea mays assessed as plant death at 15.63 ppm after 2 weeks
Avena sativa [14] = assay: Herbicidal activity against Avena sativa assessed as plant death at 7.81 ppm after 2 weeks
Amaranthus [15] = assay: Herbicidal activity against Amaranthus sp. assessed as plant death at 31.25 ppm after 2 weeks
Triticum aestivum [16] = assay: Herbicidal activity against Triticum aestivum assessed as plant death at 7.81 ppm after 2 weeks
Triticum aestivum [17] = assay: Herbicidal activity against Triticum aestivum assessed as plant death at 15.63 ppm after 2 weeks
Digitaria sanguinalis = assay: Herbicidal activity against Digitaria sanguinalis assessed as plant death at 7.81 ppm after 2 weeks
Avena sativa [18] = assay: Herbicidal activity against Avena sativa assessed as plant death at 15.63 ppm after 2 weeks
Ipomoea hederacea [19] = assay: Herbicidal activity against Ipomoea hederacea assessed as plant death at 31.25 ppm after 2 weeks
Abutilon theophrasti = assay: Herbicidal activity against Abutilon theophrasti assessed as plant death at 7.81 ppm after 2 weeks
Avena sativa [20] = assay: Herbicidal activity against Avena sativa assessed as plant death at 31.25 ppm after 2 weeks
Xanthium strumarium [21] = assay: Herbicidal activity against Xanthium strumarium assessed as plant death at 7.81 ppm after 2 weeks
Amaranthus [22] = assay: Herbicidal activity against Amaranthus sp. assessed as plant death at 15.63 ppm after 2 weeks

Measured: Activity

CCC[C@H]1C2=C(C/C(=C/CO)[C@@H](O)CC(=O)[C@H]1O)C(=O)OC2=O
active: Fallopia convolvulus [7] | Xanthium strumarium [10] | Fallopia convolvulus [11]
inactive: Sorghum bicolor [1] | Ipomoea hederacea [2] | Sorghum bicolor [3] | Setaria faberi [4] | Sorghum bicolor [5] | Setaria faberi [6] | Ipomoea hederacea [8] | Echinochloa crus-galli | Amaranthus [9] | Zea mays [12] | Zea mays [13]

C/C=C1/CC2=C(C(=O)OC2=O)[C@H](CCC)[C@H](O)C(=O)C[C@@H]1O
active: Avena sativa [20]
not listed: Sorghum bicolor [3] | Setaria faberi [4] | Setaria faberi [6] | Fallopia convolvulus [7] | Xanthium strumarium [10] | Fallopia convolvulus [11] | Zea mays [13]
inactive: all other assays above

Source: ChEMBL document CHEMBL1158243, “Hydroxycornexistin: A New Phytotoxin from Paecilomyces variotii” (J Nat Prod, 1996)
